Test results: BindingDB's records for doi:10.1021/co200147y (Bristol-Myers Squibb Research and Development, 2012)
“And” between values parts separate entries of the source, which are not always exact repeats. Equal values may be shown once.

Target: Cannabinoid receptor 1 (Homo sapiens, UniProt P21554)
Experiment: Inhibition Assay
Excerpt: Inhibition assay using hCB1.

Chain of Cannabinoid receptor 1 (P21554 whole entry): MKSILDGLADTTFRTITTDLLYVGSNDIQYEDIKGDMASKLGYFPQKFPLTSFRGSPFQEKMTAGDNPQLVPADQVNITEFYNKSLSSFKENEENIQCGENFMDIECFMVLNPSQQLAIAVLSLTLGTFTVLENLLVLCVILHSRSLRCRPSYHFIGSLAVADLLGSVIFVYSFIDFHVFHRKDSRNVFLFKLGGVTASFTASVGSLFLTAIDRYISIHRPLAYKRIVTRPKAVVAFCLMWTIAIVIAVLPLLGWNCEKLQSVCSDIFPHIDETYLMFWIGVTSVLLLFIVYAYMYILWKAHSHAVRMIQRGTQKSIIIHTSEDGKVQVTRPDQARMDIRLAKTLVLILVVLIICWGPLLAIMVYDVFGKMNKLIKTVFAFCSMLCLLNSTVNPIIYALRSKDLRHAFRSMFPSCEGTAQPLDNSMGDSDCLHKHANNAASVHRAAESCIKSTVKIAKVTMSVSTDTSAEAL

Row | SMILES | IC50
1 | Cc1cccc(-n2ncc(C(=O)NCCCc3ccccc3)c2-c2ccc(-c3ccccc3)cc2)c1C [hCB1 Inhibitor, 2{1,1,8}] | 200 nM and 40 nM
2 | Cc1ccccc1-n1ncc(C(=O)NCCCc2ccccc2)c1-c1ccc(-c2ccccc2)cc1 [hCB1 Inhibitor, 2{1,1,6}] | 200 nM
3 | CCCCNC(=O)c1cnn(-c2cccc(C)c2)c1-c1ccc(-c2ccccc2)cc1 [hCB1 Inhibitor, 2{6,1,7}] | 2700 nM
4 | CCCCNC(=O)c1cnn(-c2cccc(Cl)c2)c1-c1ccc(-c2ccccc2)cc1 [hCB1 Inhibitor, 2{6,1,1}] | 500 nM and 350 nM
5 | O=C(NCCCc1ccccc1)c1cnn(-c2cccc3ccccc23)c1-c1ccc(-c2ccccc2)cc1 [hCB1 Inhibitor, 2{1,1,3}] | 90 nM
6 | Cc1cccc(-n2ncc(C(=O)NCC3CC3)c2-c2ccc(-c3ccccc3)cc2)c1 [hCB1 Inhibitor, 2{5,1,7}] | 620 nM
7 | O=C(NCCCc1ccccc1)c1cnn(-c2cccc(Cl)c2)c1-c1ccc(-c2ccccc2)cc1 [hCB1 Inhibitor, 2{1,1,1}] | 410 nM and 200 nM
8 | O=C(NCC1CC1)c1cnn(-c2cccc(Cl)c2)c1-c1ccc(-c2ccccc2)cc1 [hCB1 Inhibitor, 2{5,1,1}] | 270 nM and 190 nM
9 | Cc1ccccc1-n1ncc(C(=O)NCC2CC2)c1-c1ccc(-c2ccccc2)cc1 [hCB1 Inhibitor, 2{5,1,6}] | 390 nM
10 | Cc1cccc(-n2ncc(C(=O)NCCCc3ccccc3)c2-c2ccc(-c3ccccc3)cc2)c1 [hCB1 Inhibitor, 2{1,1,7}] | 200 nM
11 | CCCCNC(=O)c1cnn(-c2ccccc2C)c1-c1ccc(-c2ccccc2)cc1 [hCB1 Inhibitor, 2{6,1,6}] | 2800 nM
